From patent US11091510B2, “Crystal characteristics, preparation processes and anticancer applications of 17beta-neriifolin crystal forms” (EnKang Pharmaceuticals (Guangzhou), Ltd., priority 2017, dated 2021) come the findings set out here.

The experiment concerns Human gastric cancer cells MGC-803. The experiment can be described thus: In vivo efficacy test of 17bNF Crystal Form 0 and Form II, MGC-803 xenograft in nude mice. The note with it: oral, once a day, six times every week until the 15th day; start at average tumor volume 1450 mm^3; FIG. 42A-C. On the procedure:
Human gastric cancer cells MGC-803 were subcutaneously planted into the armpit of nude mice. The test drugs 17bNF-0 and 17bNF-II were separately administrated orally when the average tumor volume reached 1450 mm^3. Drugs were given once a day, six times every week until the 15th day. CMC (drug-carrier; 0.5%) was used as the blank control. Tumor volumes were measured once about every three days (FIG. 42A), and the nude mice were photographed on the 22th day (FIG. 42B), and the nude mice were sacrificed on the 22th day. The tumors were dissected out from the nude mice and photographed (FIG. 42C).

`COC1C(O)[C@H](O[C@H]2CC[C@@]3(C)[C@H](CC[C@@H]4[C@@H]3CC[C@]3(C)[C@@H](C5=CC(=O)OC5)CC[C@]43O)C2)OC(C)[C@@H]1O` (stereo partly drawn) [17bNF-0, (3β, 5β)-3-[(6-deoxy-3-O-methyl-α-L-glucopyranosyl)oxy]-14-hydroxycard-20(22)-enolide]: the “anticancer activities in nude mice (tumor volume)” value is recorded as “very high anticancer activities”.
